Measurements as given in patent US10919852B2, “Immunomodulator compounds” (CHEMOCENTRYX, INC., priority 2017, dated 2021).

Target: human PD-L1 / Human PD-1 (Homo sapiens (Human), UniProt Q9NZQ7)
Assay: Enzyme-Linked Immunosorbent Assay (ELISA), PD-1/PD-L1 binding
Conditions: plate-coated human PD-L1, biotinylated human PD-1
Outline: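 Plates were coated with human PD-L1 at […]. Biotinylated human PD-1 (0.3 μg/mL) was added with 1:5 serially diluted compound for 1 h at 37 °C. Bound PD-1 was detected with streptavidin-HRP (1 h) and TMB (20 min), with absorbance read at 450 nm.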

Sequence of human PD-L1 / Human PD-1 (Q9NZQ7 19-239): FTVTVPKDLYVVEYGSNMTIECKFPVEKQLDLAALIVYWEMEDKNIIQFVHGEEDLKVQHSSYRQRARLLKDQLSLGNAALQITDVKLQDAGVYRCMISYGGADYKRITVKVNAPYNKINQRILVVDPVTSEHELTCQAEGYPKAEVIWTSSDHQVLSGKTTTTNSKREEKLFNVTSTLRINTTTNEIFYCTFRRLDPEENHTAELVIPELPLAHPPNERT

IC50	SMILES
< 5 nM	N#Cc1cncc(COc2cc(O[C@H]3CCc4c(-c5cccc(OCCCN6CC7(C6)CC(F)(F)C7)c5Cl)cccc43)c(Cl)cc2CN[C@@H]2CCCC[C@@H]2O)c1
5 to 500 nM	N#Cc1cncc(COc2cc(O[C@H]3CCc4c(-c5cccc(OCCCN6CC7(CC(F)C7)C6)c5Cl)cccc43)c(Cl)cc2CN2CCC3(C2)NC(=O)NC3=O)c1 (some centres unmarked)
5 to 500 nM	CCOc1cc(O[C@H]2CCc3c(-c4cccc(OCCCN5[C@H](C)CC[C@H]5C)c4C)cccc32)c(Cl)cc1CN1CCC[C@@H](C(=O)O)C1
5 to 500 nM	Cc1c(OCCCN2CCC(F)CC2)cccc1-c1cccc2c1CC[C@@H]2Oc1cc(OCc2cncc(C#N)c2)c(CN[C@H](C(N)=O)[C@@H](C)O)cc1Cl
< 5 nM	N#Cc1cncc(COc2cc(O[C@H]3CCc4c(-c5cccc(OCCCN6CCC(F)CC6)c5Cl)cccc43)c(Cl)cc2CN[C@@H]2CCCC[C@@H]2O)c1
5 to 500 nM	Cc1c(OCCCN2CCC(C)(F)CC2)cccc1-c1cccc2c1C[C@H](F)[C@@H]2Oc1cc(OCc2cc(C#N)cc(C#N)c2)c(CN[C@H]2CCC(=O)NC2)cc1Cl
< 5 nM	N#Cc1cncc(COc2cc(O[C@H]3CCc4c(-c5cccc(OCCCN6CCC(F)CC6)c5Cl)cccc43)c(Cl)cc2CNC[C@@H]2CCC(=O)N2)c1
< 5 nM	N#Cc1cncc(COc2cc(O[C@H]3CCc4c(-c5cccc(OCCCN6CC(O)C6)c5Cl)cccc43)c(Cl)cc2CN2CC(O)C2)c1
< 5 nM	CCN1CCC(COc2cccc(-c3cccc4c3CC[C@@H]4Oc3cc(OCc4cncc(C#N)c4)c(CN[C@H]4CCC(=O)NC4)cc3Cl)c2Cl)C1 (some centres unmarked)
< 5 nM	CCOc1cc(O[C@H]2CCc3c(-c4cccc(OCCCN5CCC(O)CC5)c4C)cccc32)c(Cl)cc1CN[C@@H](CO)C(=O)O
5 to 500 nM	CCOc1cc(O[C@H]2CCc3c(-c4cccc(OCCCN5CCC(F)CC5)c4Cl)cccc32)c(Cl)cc1CN[C@@H]1CCOC[C@H]1O
< 5 nM	N#Cc1cncc(COc2cc(O[C@H]3CCc4c(-c5cccc(OCCCN6CC7(CC(F)C7)C6)c5Cl)cccc43)c(Cl)cc2CNC[C@@H]2CCC(=O)N2)c1
< 5 nM	N#Cc1cncc(COc2cc(O[C@H]3CCc4c(-c5cccc(OCCCN6CC7(CC(F)C7)C6)c5Cl)cccc43)c(Cl)cc2CN[C@@H]2CCC[C@@H]2O)c1
< 5 nM	C[C@@](CO)(NCc1cc(Cl)c(O[C@H]2CCc3c(-c4cccc(OCCCN5CC(O)C5)c4Cl)cccc32)cc1OCc1cncc(C#N)c1)C(=O)O
< 5 nM	N#Cc1cncc(COc2cc(O[C@H]3CCc4c(-c5cccc(OCCCN6CC7(CC(O)C7)C6)c5Cl)cccc43)c(Cl)cc2CN[C@H]2CCC[C@@H]2O)c1
5 to 500 nM	CCOc1cc(O[C@H]2CCc3c(-c4cccc(OCCCN5CCCCC5(C)C)c4C)cccc32)c(Cl)cc1CNC[C@@H]1CCC(=O)N1
< 5 nM	N#Cc1cncc(COc2cc(O[C@H]3CCc4c(-c5cccc(OCCCN6CCC(F)CC6)c5Cl)cccc43)c(Cl)cc2CN2CC3(C2)NC(=O)NC3=O)c1
5 to 500 nM	CCOc1cc(O[C@H]2CCc3c(-c4cccc(OCCCN5CCOCC5)c4C)cccc32)c(Cl)cc1CN1CC(C)(C(=O)O)C1
< 5 nM	Cc1c(OCCCN2CCC(O)CC2)cccc1-c1cccc2c1CC[C@@H]2Oc1cc(OCc2cncc(C#N)c2)c(CN[C@@H](CNC(=N)N)C(=O)O)cc1Cl
< 5 nM	N#Cc1cncc(COc2cc(O[C@H]3CCc4c(-c5cccc(OCCCN6CC7(CC(F)C7)C6)c5Cl)cccc43)c(Cl)cc2CNC[C@H]2CCC(=O)N2)c1
5 to 500 nM	Cc1c(OCCCN2CC3(CCC3)C2)cccc1-c1cccc2c1CC[C@@H]2Oc1cc(OCc2cc(C#N)cc(C#N)c2)c(CNC[C@H]2CCC(=O)N2)cc1Cl
< 5 nM	Cc1c(OCCCN2CCC(F)CC2)cccc1-c1cccc2c1CC[C@@H]2Oc1cc(OCc2cncc(C#N)c2)c(CN[C@H](C(=O)O)[C@@H](C)O)cc1Cl

IC50	SMILES
< 5 nM	CC1(F)CCN(CCCOc2cccc(-c3cccc4c3CC[C@@H]4Oc3cc(OCc4cncc(C#N)c4)c(CNC[C@@H]4CCC(=O)N4)cc3Cl)c2Cl)CC1
5 to 500 nM	CCOc1cc(O[C@H]2CCc3c(-c4cccc(OCCCN5CCC5(C)C)c4C)cccc32)c(Cl)cc1CN(C)CCCCC(=O)O
< 5 nM	CCOc1cc(O[C@H]2CCc3c(-c4cccc(OCCCN5CCCC5(C)C)c4C)cccc32)c(Cl)cc1CNC[C@@H]1CCC(=O)N1 [drawing 395]
5 to 500 nM	CC1(F)CCN(Cc2cc(Cl)c(O[C@H]3CCc4c(-c5cccc(OCCCN6CCC(F)CC6)c5Cl)cccc43)cc2OCc2cncc(C#N)c2)CC1
< 5 nM	N#Cc1cncc(COc2cc(O[C@H]3CCc4c(-c5cccc(OCCCN6CC(O)C6)c5Cl)cccc43)c(Cl)cc2CNC[C@@H]2CCC(=O)N2)c1
< 5 nM	Cc1c(OCCCN2CC[C@@H](F)C2)cccc1-c1cccc2c1CC[C@@H]2Oc1cc(OCc2cncc(C#N)c2)c(CN[C@@H]2CCCC[C@@H]2O)cc1Cl
< 5 nM	CCOc1cc(O[C@H]2CCc3c(-c4cccc(OCCCN(C)C(C)C)c4C)cccc32)c(Cl)cc1CNC[C@@H]1CCC(=O)N1
5 to 500 nM	Cc1c(OCCCN2CCCCC2(C)C)cccc1-c1cccc2c1CC[C@@H]2Oc1cc(OCc2cc(C#N)cc(C#N)c2)c(CN[C@H]2CCC(=O)NC2)cc1Cl
< 5 nM	N#Cc1cncc(COc2cc(O[C@H]3CCc4c(-c5cccc(OCCCN6CCC(F)CC6)c5Cl)cccc43)c(Cl)cc2CN[C@@H]2CC[C@H]2O)c1
< 5 nM	Cc1c(OCCCN2CCCC[C@@H]2C)cccc1-c1cccc2c1CC[C@@H]2Oc1cc(OCc2cc(C#N)cc(C#N)c2)c(CNC[C@@H]2CCC(=O)N2)cc1Cl
< 5 nM	Cc1c(OCCCN2CCC(F)CC2)cccc1-c1cccc2c1CC[C@@H]2Oc1cc(OCc2cc(C#N)cc(C#N)c2)c(CN[C@@H]2CCC(=O)NC2)cc1Cl
5 to 500 nM	Cc1c(OCCCN2CCC[C@@H](F)C2)cccc1-c1cccc2c1CC[C@@H]2Oc1cc(OCc2cc(C#N)cc(C#N)c2)c(CN[C@H]2CCC(=O)NC2)cc1Cl
< 5 nM	CC(CO)(NCc1cc(Cl)c(O[C@H]2CCc3c(-c4cccc(OCCCN5CC(O)C5)c4Cl)cccc32)cc1OCc1cccnc1)C(=O)O (some centres unmarked)
5 to 500 nM	Cc1c(OCCCN2CCC(C)(F)CC2)cccc1-c1cccc2c1CC[C@@H]2Oc1cc(OCc2cc(C#N)cc(C#N)c2)c(CNC[C@H]2CCC(=O)N2)cc1Cl
< 5 nM	CCOC(=O)[C@](C)(CO)NCc1cc(Cl)c(O[C@H]2CCc3c(-c4cccc(OCCCN5CC(O)C5)c4Cl)cccc32)cc1OCc1cncc(C#N)c1
< 5 nM	Cc1c(OCCCN2CC3(CCC3)C2)cccc1-c1cccc2c1CC[C@@H]2Oc1cc(OCc2cc(C#N)cc(C#N)c2)c(CNC[C@@H]2CCC(=O)N2)cc1Cl
5 to 500 nM	Cc1c(OCCCN2C(C)(C)CCCC2(C)C)cccc1-c1cccc2c1CC[C@@H]2Oc1cc(OCc2cc(C#N)cc(C#N)c2)c(CN[C@H]2CCC(=O)NC2)cc1Cl
5 to 500 nM	Cc1c(OCCCN2CCC(C)(F)CC2)cccc1-c1cccc2c1C[C@@H](F)[C@@H]2Oc1cc(OCc2cc(C#N)cc(C#N)c2)c(CN[C@H]2CCC(=O)NC2)cc1Cl
5 to 500 nM	Cc1c(OCCCN2CCC(F)CC2)cccc1-c1cccc2c1CC[C@@H]2Oc1cc(OCc2cncc(C#N)c2)c(CN2CC(S(N)(=O)=O)C2)cc1Cl
5 to 500 nM	CCOc1cc(O[C@H]2CCc3c(-c4cccc(OCCCN5[C@H](C)CC[C@H]5C)c4C)cccc32)c(Cl)cc1CN1CCC(O)CC1
< 5 nM	N#Cc1cncc(COc2cc(O[C@H]3CCc4c(-c5cccc(OCCCN6CCNC(=O)C6)c5Cl)cccc43)c(Cl)cc2CNC2(C(=O)O)CCC2)c1
5 to 500 nM	CCOc1cc(O[C@H]2CCc3c(-c4cccc(OCCCN5CCC[C@H]5C(C)C)c4C)cccc32)c(Cl)cc1CNC[C@@H]1CCC(=O)N1
